From US8901118B2, “Compounds and methods for kinase modulation, and indications therefor” (Plexxikon Inc., priority 2010, dated 2014)

Legend:
BCR-NTRK3 BaF3 cells = biological target: T1, BCR-NTRK3 BaF3 cells (Homo sapiens, UniProt Q16288); experiment: BaF3 BCR-NTRK3 cell proliferation assay (ATPlite); format: cell-based; settings: read-out: Inhibition of Cell Proliferation IC50, BCR/BaF3 TrkC
T1 construct: fused on or other part: P11274 (Breakpoint cluster region protein)
Description: Compounds are assessed in a variety of cell based assays. For example BaF3 cells engineered with any of BCR-FMS, BCR-KIT, BCR-FLT3, BCR-NTRK1, BCR-NTRK2, and BCR-NTRK3, are used in cell proliferation assays to assess inhibitory activity of Fms, Kit, Flt-3, TrkA, TrkB, and TrkC, respectively. An MV-4-11 (leukemia) cell proliferation assay is used to assess inhibitory activity in Flt-3, and SKNSH (human neuroblastoma) cell proliferation assay is used to assess efficacy of Fms/Trk inhibitors. Additional cells may be assayed similarly to assess the efficacy of Fms/Trk inhibitors, such as MiaPaCa (human pancreatic cancer) and Capan-1 (human pancreatic carcinoma) cells. Reagent and assay conditions are as follows: • BaF3 cells: • Maintained in RPMI containing 10% FBS, 1% PenStrep, 1% NEAA, and 1% L-Glutamine, supplemented with 1 mg/mL G418 and 5% WEHI-CM (or recombinant murine IL-3). • Confluent cells are split 1:50 to 1:100 every 3-4 days. • MV-4-11 cells: • Maintained in Iscove's Modified Dulbecco's Medium containing 10% FBS. • Confluent cells are split 1:4 every 3-4 days. • SKNSH cells: RPMI containing 10% FBS. On day 1, cells are counted, then centrifuged in a conical tube for 5 minutes at 1000 rpm. The supernatant is removed and cells are re-suspended as follows: • BaF3: resuspend in growth media +1 mg/mL G418 (without WEHFIL-3) to 2×10^5 cells/mL. • MV-4-11: resuspend in growth media to 5×10^5 cells/mL. • SKNSH: resuspend in growth media to 2×10^4 cells/mL. The cells are plated (50 μL, 150 μL for SKNSH cells) in each well of a 96-well dish (Corning 3610) and incubated at 37° C. in 5% CO2 overnight, cells plated to a final concentration of cells as follows: • BaF3: 10,000 cells per well. • MV-4-11: 25,000 cells per well. • SKNSH: 3,000 cells per well. On day 2, compound at a maximum concentration of 5 mM is serially diluted 1:3 for a total of 8 point titration with DMSO as a control. A 1 μL aliquot of each dilution point is added to 249 μL growth media and 50 μL is added to a well containing cells, providing 10 μM compound for the maximum concentration point. The cells are incubated for 3 days at 37° C. in 5% CO2. For SKNSH cells, a 0.75 μL aliquot of appropriate dilution in DMSO is added to 150 μL of cells. On day 5, ATPlite 1 step Luminescence Assay System (Perkin Elmer #6016739) is brought to room temperature along with the cell cultures. ATPlite is added to each well as follows: • BaF3: 25 μL per well. • MV-4-11: 40 μL per well. • SKNSH: 20 μL per well. The cells are incubated at room temperature for 10 minutes, then luminescence is read on Safire reader. The measured luminescence correlates directly with cell number, such that the reading as a function of compound concentration is used to determine the IC50 value.
It is understood that the results of these assays may vary as assay conditions are varied. Inhibition levels determined under the conditions described herein represent a relative activity for the compounds tested under the specific conditions employed. The cell based assays are likely to show variability due to the complexity of the system and the sensitivity thereof to any changes in the assay conditions. […] Results for compounds that are tested and show substantially no inhibition below the highest tested concentration are represented as “-” in the tables below. In some instances, the compounds were not tested in all of the assays, or assay results were not valid, as indicated by NA in the tables below.

CYP3A4(BFC) = CYP3A4(BFC) (Homo sapiens, UniProt P08684); experiment: CYP3A4(BFC) inhibition; format: in vitro ADME; settings: CYP3A4, substrate BFC; read-out: Cyp IC50 3A4(BFC)
Description: CYP (Cytochrome P450) enzymes are the major drug metabolizing enzymes present in the liver. The inhibition of CYP enzyme activity (IC50) for each of CYP1A2, CYP2C19, CYP2C9, CYP2D6, CYP3A4(BFC) and CYP3A4(BQ) is determined for compounds, where inhibition of metabolism of a known substrate leads to a decrease in the fluorescence of the metabolized product. The fluorescence of the product is monitored as a function of compound concentration. Compounds are dissolved in DMSO to a concentration of 100 mM. These are diluted 1 μL into 82 μL of acetonitrile. An 11 μL aliquot of this solution is then added to 204 μL of cofactor mix (1.3% NADPH Regeneration system Solution A, 1.04% NADPH Regeneration system Solution B from BD Biosciences, 5% acetonitrile and 0.05% DMSO). These are then serially diluted 1:1 (160 μL to 160 μL co-factor mix) for a total of 10 points. A 10 μL aliquot of this final mixture is dispensed into 384 well assay plates and incubated for 10 minutes at 37° C. […] Assay plates are incubated at 37° C. (CYP1A2-15 min; CYP2C9-45 min; CYP2C19, 2D6 and 3A4-30 min) and read in a Tecan Safire 2 plate reader (CYP1A2, 2C19 and 3A4 409 ex/460 em; CYP2C9 and 2D6 409 ex/530 em). The signal versus compound concentration is used to determine the IC50. The enzymes and substrates for this assay are obtained from BD Biosciences.

CYP3A4(BFC), sequence (P08684 whole entry): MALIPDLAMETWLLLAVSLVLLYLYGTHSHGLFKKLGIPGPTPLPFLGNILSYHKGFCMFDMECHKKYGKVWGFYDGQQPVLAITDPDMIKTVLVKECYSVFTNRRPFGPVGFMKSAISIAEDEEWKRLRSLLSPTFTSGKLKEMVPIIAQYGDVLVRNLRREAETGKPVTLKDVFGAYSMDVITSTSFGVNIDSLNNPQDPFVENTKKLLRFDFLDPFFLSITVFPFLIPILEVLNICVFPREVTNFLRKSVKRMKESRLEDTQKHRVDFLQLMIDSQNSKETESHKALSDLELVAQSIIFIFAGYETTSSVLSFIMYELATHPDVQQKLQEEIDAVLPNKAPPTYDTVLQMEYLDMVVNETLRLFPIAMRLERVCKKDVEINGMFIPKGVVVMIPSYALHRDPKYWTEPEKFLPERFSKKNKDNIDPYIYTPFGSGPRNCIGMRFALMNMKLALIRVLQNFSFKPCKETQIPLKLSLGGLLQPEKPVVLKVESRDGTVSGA
T1 sequence (Q16288 whole entry, the tested form may be a part): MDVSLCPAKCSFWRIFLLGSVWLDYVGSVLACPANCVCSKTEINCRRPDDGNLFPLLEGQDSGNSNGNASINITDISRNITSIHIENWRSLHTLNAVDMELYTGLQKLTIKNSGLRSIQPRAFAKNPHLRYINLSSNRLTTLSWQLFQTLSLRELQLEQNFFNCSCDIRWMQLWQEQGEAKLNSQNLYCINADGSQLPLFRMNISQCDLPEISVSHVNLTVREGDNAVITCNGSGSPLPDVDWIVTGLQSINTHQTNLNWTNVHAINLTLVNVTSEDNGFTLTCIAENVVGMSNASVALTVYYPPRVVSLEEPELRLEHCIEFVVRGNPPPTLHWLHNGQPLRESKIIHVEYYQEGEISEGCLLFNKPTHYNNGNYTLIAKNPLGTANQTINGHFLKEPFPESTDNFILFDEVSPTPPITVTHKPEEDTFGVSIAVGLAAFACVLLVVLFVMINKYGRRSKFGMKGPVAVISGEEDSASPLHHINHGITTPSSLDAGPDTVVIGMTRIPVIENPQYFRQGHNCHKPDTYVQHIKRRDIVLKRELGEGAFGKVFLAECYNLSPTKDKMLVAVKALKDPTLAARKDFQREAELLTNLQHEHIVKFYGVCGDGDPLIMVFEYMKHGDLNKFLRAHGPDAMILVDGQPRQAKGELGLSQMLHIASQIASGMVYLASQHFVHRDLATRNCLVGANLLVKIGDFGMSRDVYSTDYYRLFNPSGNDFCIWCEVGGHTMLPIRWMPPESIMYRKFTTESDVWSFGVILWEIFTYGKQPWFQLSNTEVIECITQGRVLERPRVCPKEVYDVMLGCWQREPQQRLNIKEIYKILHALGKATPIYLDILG

| IC50 (BCR-NTRK3 BaF3 cells) | IC50 (CYP3A4(BFC)) | SMILES |
| --- | --- | --- |
| > 10 µM |  | Fc1ccccc1Nc1ncc(Cc2c[nH]c3ncc(Cl)cc23)cn1 [Compound P-3014, [5-(5-Chloro-1H-pyrrolo[2,3-b]pyridin-3-ylmethyl)-pyrimidin-2-yl]-(2-fluoro-phenyl)-amine] |
| > 10 µM |  | Clc1cnc2[nH]cc(Cc3cnc(Nc4ccccc4Cl)nc3)c2c1 [Compound P-3015, (2-Chloro-phenyl)-[5-(5-chloro-1H-pyrrolo[2,3-b]pyridin-3-ylmethyl)-pyrimidin-2-yl]-amine] |
| < 0.1 µM |  | CNc1ncnc2[nH]cc(C(=O)c3ccc(Nc4ccc(OC)nc4)nc3OC)c12 [Compound P-4085, [2-methoxy-6-[(6-methoxy-3-pyridyl)amino]-3-pyridyl]-[4-(methylamino)-7H-pyrrolo[2,3-d]pyrimidin-5-yl]methanone] |
|  | > 10 µM | CCc1ccc(Nc2ccc(C(=O)c3c[nH]c4ncnc(NC5CCC(F)(F)CC5)c34)c(F)n2)cn1 [Compound P-4096, [4-[(4,4-difluorocyclohexyl)amino]-7H-pyrrolo[2,3-d]pyrimidin-5-yl]-[6-[(6-ethyl-3-pyridyl)amino]-2-fluoro-3-pyridyl]methanone] |
|  | > 10 µM | CCc1ccc(Nc2ccc(C(=O)c3c[nH]c4ncnc(N[C@@H](C)c5ccc(F)cc5)c34)c(F)n2)cn1 [Compound P-4097, [6-[(6-ethyl-3-pyridyl)amino]-2-fluoro-3-pyridyl]-[4-[[(1S)-1-(4-fluorophenyl)ethyl]amino]-7H-pyrrolo[2,3-d]pyrimidin-5-yl]methanone] |
|  | > 10 µM | CCc1ccc(Nc2ccc(C(=O)c3c[nH]c4ncnc(NCCCOC)c34)c(F)n2)cn1 [Compound P-4098, [6-[(6-ethyl-3-pyridyl)amino]-2-fluoro-3-pyridyl]-[4-(3-methoxypropylamino)-7H-pyrrolo[2,3-d]pyrimidin-5-yl]methanone] |
|  | > 10 µM | CCc1ccc(Nc2ccc(C(=O)c3c[nH]c4ncnc(NC5CCCC5)c34)c(F)n2)cn1 [Compound P-4099, [4-(cyclopentylamino)-7H-pyrrolo[2,3-d]pyrimidin-5-yl]-[6-[(6-ethyl-3-pyridyl)amino]-2-fluoro-3-pyridyl]methanone] |
|  | > 10 µM | CCCCNc1ncnc2[nH]cc(C(=O)c3ccc(Nc4ccc(CC)nc4)nc3F)c12 [Compound P-4100, [4-(butylamino)-7H-pyrrolo[2,3-d]pyrimidin-5-yl]-[6-[(6-ethyl-3-pyridyl)amino]-2-fluoro-3-pyridyl]methanone] |
|  | > 10 µM | CC(C)Nc1ncnc2[nH]cc(C(=O)c3ccc(NC4CCCCC4)nc3F)c12 [Compound P-4101, [6-(cyclohexylamino)-2-fluoro-3-pyridyl]-[4-(isopropylamino)-7H-pyrrolo[2,3-d]pyrimidin-5-yl]methanone] |
|  | > 10 µM | CNc1ncnc2[nH]cc(C(=O)c3ccc(NC4CCCCC4)nc3F)c12 [Compound P-4102, [6-(cyclohexylamino)-2-fluoro-3-pyridyl]-[4-(methylamino)-7H-pyrrolo[2,3-d]pyrimidin-5-yl]methanone] |
|  | > 10 µM | CC(C)Nc1ncnc2[nH]cc(C(=O)c3ccc(NC4CCCCC4)nc3Cl)c12 [Compound P-4109, [2-chloro-6-(cyclohexylamino)-3-pyridyl]-[4-(isopropylamino)-7H-pyrrolo[2,3-d]pyrimidin-5-yl]methanone] |
|  | > 10 µM | CNc1ncnc2[nH]cc(C(=O)c3ccc(NC4CCCCC4)nc3Cl)c12 [Compound P-4110, [2-chloro-6-(cyclohexylamino)-3-pyridyl]-[4-(methylamino)-7H-pyrrolo[2,3-d]pyrimidin-5-yl]methanone] |
|  | > 10 µM | Cc1ccc(Nc2ccc(C(=O)c3c[nH]c4ncnc(NCC5CC5)c34)c(F)n2)cn1 [Compound P-4113, [4-(cyclopropylmethylamino)-7H-pyrrolo[2,3-d]pyrimidin-5-yl]-[2-fluoro-6-[(6-methyl-3-pyridyl)amino]-3-pyridyl]methanone] |
